Results as given in patent publication EP1203770A1 (priority 1992, dated 1994).

Target: T1, HIV-1 protease (Human immunodeficiency virus type 1 group M subtype B, UniProt P04585)
T1 construct: The protease (or proteinase), consisting of only 99 amino acids, is among the smallest enzymes known
Assay: In vitro HIV protease inhibitory assay (HIV Protease FITC Assay)
Assay type: biochemical
Details: for inhibition at 0.41 µM: HIV-1 Dose 0.410 uM; for inhibition at 0.41 µM / inhibition at 1.23 µM / inhibition at 3.7 µM / inhibition at 11 µM / inhibition at 33 µM / inhibition at 100 µM / inhibition at 0.123 µM / inhibition at 0.37 µM / inhibition at 1.1 µM / inhibition at 3.3 µM / inhibition at 10 µM / inhibition at 30 µM: read-out: HIV-1 Protease % Inhib; for inhibition at 1.23 µM: HIV-1 Dose 1.230 uM; for inhibition at 3.7 µM: HIV-1 Dose 3.700 uM; for inhibition at 11 µM: HIV-1 Dose 11.000 uM; for inhibition at 33 µM: HIV-1 Dose 33.000 uM; for inhibition at 100 µM: HIV-1 Dose 100.000 uM; for Ki: read-out: HIV-1 FITC Ki
Description: The HIV protease screening assay is based on a fluorescently labeled substrate which can be resolved from nonlabeled cleavage product using avidin-polystyrene particles, 0.7-0.9 µm. The substrate is biotinylated at the amino terminal arginine and fluorescently labeled with fluorescein isothiocynate (FITC) at the carboxyl terminal lysine. […] Substrate (20 µl of 0.2 µM), sample (10 µl of desired concentraion), and enzyme (10 µl of 0.1 µM) are added to a 96 well pandex plate. The assay is run in 0.1 M sodium acetate buffer at pH 5.5 in the presence of 1.0 M sodium chloride and 0.05% NP-40 and incubated in the dark for one hour at room temperature. Avidin coated polystyrene beads {40 µl of 0.1% (w/v)} are added and the incubation is continued in the dark for an additional half hour. The labeled cleavage product is separated from the unreacted substrate via filtration and is read on the Idexx Screen Machine. The data are analyzed by appropriate computer algorithms to ascertain percent inhibition values.

| Structure (SMILES) | inhibition at 0.41 µM [%] | inhibition at 1.23 µM [%] | inhibition at 3.7 µM [%] | inhibition at 11 µM [%] | inhibition at 33 µM [%] | inhibition at 100 µM [%] | Ki [nM] | inhibition at 0.123 µM (HIV-1 Dose 0.123 uM) [%] | inhibition at 0.37 µM (HIV-1 Dose 0.370 uM) [%] | inhibition at 1.1 µM (HIV-1 Dose 1.100 uM) [%] | inhibition at 3.3 µM (HIV-1 Dose 3.300 uM) [%] | inhibition at 10 µM (HIV-1 Dose 10.000 uM) [%] | inhibition at 30 µM (HIV-1 Dose 30.000 uM) [%] | HIV-1 Protease % Inhib (HIV-1 Dose 0.123 uM) [%] | HIV-1 Protease % Inhib (HIV-1 Dose 0.370 uM) [%] | HIV-1 Protease % Inhib (HIV-1 Dose 1.100 uM) [%] | HIV-1 Protease % Inhib (HIV-1 Dose 3.300 uM) [%] | HIV-1 Protease % Inhib (HIV-1 Dose 10.000 uM) [%] | HIV-1 Protease % Inhib (HIV-1 Dose 30.000 uM) [%] |
| --- | --- | --- | --- | --- | --- | --- | --- | --- | --- | --- | --- | --- | --- | --- | --- | --- | --- | --- | --- |
| CCC(Cc1ccco1)c1cc(O)c(C(c2ccccc2)C2CC2)c(=O)o1 (centres unmarked) [Example 59, 3-(Cyclopropyl-phenyl-methyl)-6-(1-furan-2-ylmethyl-propyl)4-hydroxy-pyran-2-one] | 64.2 | 81.2 | 104 | 102 | 101 | 105 | 58 |  |  |  |  |  |  |  |  |  |  |  |  |
| CCC(CC1OCCO1)c1cc(O)c(C(c2ccccc2)C2CC2)c(=O)o1 (centres unmarked) [Example 60, 3-(Cyclopropyl-phenyl-methyl)-6-(1-(1,3)dioxolan-2-ylmethyl-propyl)-4-hydroxy-pyran-2-one] | 63.2 | 86.7 | 106 | 113 | 111 | 123 | 46 |  |  |  |  |  |  |  |  |  |  |  |  |
| CCC(CC1CCCOC1)c1cc(O)c(C(c2ccccc2)C2CC2)c(=O)o1 (centres unmarked) [Example 61, 3-(Cyclopropyl-phenyl-methyl)-4-hydroxy-6-(1-(tetrahydro-pyran-3-ylmethyl)-propyl)-pyran-2-one] | 100 | 101 | 108 | 111 | 111 | 103 | 13 |  |  |  |  |  |  |  |  |  |  |  |  |
| CCC(CC1CCCCO1)c1cc(O)c(C(c2ccccc2)C2CC2)c(=O)o1 (centres unmarked) [Example 62, 3-(Cyclopropyl-phenyl-methyl)-4-hydroxy-6-(1-(tetrahydro-pyran-2-ylmethyl)-propyl)-pyran-2-one] | 85.7 | 95.8 | 108 | 116 | 113 | 123 | 74 |  |  |  |  |  |  |  |  |  |  |  |  |
| CCC(Cc1ccccn1)c1cc(O)c(C(c2ccccc2)C2CC2)c(=O)o1 (centres unmarked) [Example 63, 3-(Cyclopropyl-phenyl-methyl)-4-hydroxy-6-(1-pyridin-2-ylmethyl-propyl)-pyran-2-one] | 68.5 | 95.8 | 101 | 110 | 112 | 117 | 79 |  |  |  |  |  |  |  |  |  |  |  |  |
| CCC(CCCCl)c1cc(O)c(C(c2ccccc2)C2CC2)c(=O)o1 (centres unmarked) [Example 64, 6-(4-Chloro-1-ethyl-butyl)-3-(cyclopropyl-phenyl-methyl)-4-hydroxy-pyran-2-one] |  |  |  |  |  |  | 44 | 13.7 | 53.9 | 87.7 | 103 | 109 | 119 |  |  |  |  |  |  |
| CCC(CCC1OCCCO1)c1cc(O)c(C(c2ccccc2)C2CC2)c(=O)o1 (centres unmarked) [Example 65, 3-(Cyclopropyl-phenyl-methyl)-6-(3-(1,3)dioxan-2-yl-1-ethyl-propyl)-4-hydroxy-pyran-2-one] |  |  |  |  |  |  | 141 | < 10 | 28 | 71.2 | 93.2 | 107 | 122 |  |  |  |  |  |  |
| CCC(CCCl)c1cc(O)c(C(c2ccccc2)C2CC2)c(=O)o1 (centres unmarked) [Example 66, 6-(3-Chloro-1-ethyl-propyl)-3-(cyclopropyl-phenyl-methyl)-4-hydroxy-pyran-2-one] |  |  |  |  |  |  | 53 | < 10 | 36 | 75.3 | 99.4 | 102 | 108 |  |  |  |  |  |  |
| CCC(CCOC1CCCCO1)c1cc(O)c(C(c2ccccc2)C2CC2)c(=O)o1 (centres unmarked) [Example 67] |  |  |  |  |  |  | 84 |  |  |  |  |  |  | <10 | 32.64 | 72.63 | 92.3 | 106.66 | 118.42 |
| CCC(Cc1ccncc1)c1cc(O)c(C(c2ccccc2)C2CC2)c(=O)o1 (centres unmarked) [Example 68, 3-(Cyclopropyl-phenyl-methyl)-4-hydroxy-6-(1-pyridin-4-ylmethyl-propyl)-pyran-2-one] |  |  |  |  |  |  | 132 | < 10 | 15.1 | 47.7 | 80.3 | 98.7 | 112 |  |  |  |  |  |  |
| CCC(CC(=O)N1CCOCC1)c1cc(O)c(C(c2ccccc2)C2CC2)c(=O)o1 (centres unmarked) [Example 69, 3-(Cyclopropyl-phenyl-methyl)-6-(1-ethyl-3-morpholin-4-yl-3-oxo-propyl)-4-hydroxy-pyran-2-one] |  |  |  |  |  |  |  | < 10 | < 10 | 13.9 | 42.1 | 75.2 | 98.5 |  |  |  |  |  |  |
| CCC(Cc1cccnc1)c1cc(O)c(C(c2ccccc2)C2CC2)c(=O)o1 (centres unmarked) [Example 70, 3-(Cyclopropyl-phenyl-methyl)-4-hydroxy-6-(1-pyridin-3-ylmethyl-propyl)-pyran-2-one] |  |  |  |  |  |  | 64 | < 10 | 38.3 | 67.3 | 88.9 | 92.8 | 98.6 |  |  |  |  |  |  |
| CCC(CCc1ccsc1)c1cc(O)c(C(c2ccccc2)C2CC2)c(=O)o1 (centres unmarked) [Example 71, 3-(Cyclopropyl-phenyl-methyl)-6-(1-ethyl-3-thiophen-3-yl-propyl)-4-hydroxy-pyran-2-one] |  |  |  |  |  |  | 54 | 11.6 | 46.3 | 75 | 84 | 95.3 | 96.4 |  |  |  |  |  |  |
| CCCC(CC1CCCOC1)c1cc(O)c(C(c2ccccc2)C2CC2)c(=O)o1 (centres unmarked) [Example 72, 3-(Cyclopropyl-phenyl-methyl)-4-hydroxy-6-[1-(tetrahydro-pyran-3-ylmethyl)-butyl]-pyran-2-one] |  |  |  |  |  |  | 31 | 35 | 68.4 | 90.7 | 98.7 | 93.9 | 97.7 |  |  |  |  |  |  |
| CCC(CCCN1CCOCC1)c1cc(O)c(C(c2ccccc2)C2CC2)c(=O)o1 (centres unmarked) [Example 73, 3-(Cyclopropyl-phenyl-methyl)-6-(1-ethyl-4-morpholin-4-yl-butyl)-4-hydroxy-pyran-2-one] |  |  |  |  |  |  |  | < 10 | < 10 | < 10 | < 10 | 28.9 | 61.4 |  |  |  |  |  |  |
| CCC(CC1COc2ccccc2O1)c1cc(O)c(C(c2ccccc2)C2CC2)c(=O)o1 (centres unmarked) [Example 74, 3-(Cyclopropyl-phenyl-methyl)-6-[1-(2,3-dihydro-benzo[1,4]dioxin-2-ylmethyl)-propyl]-4-hydroxy-pyran-2-one] |  |  |  |  |  |  | 186 | < 10 | 17.5 | 53.4 | 81.4 | 96.7 | 106 |  |  |  |  |  |  |
| CC(C)Cc1cc(O)c(C(c2ccccc2)C2CC2)c(=O)o1 (centres unmarked) [Example 75, 3-(Cyclopropyl-phenyl-methyl)-4-hydroxy-6-isobutyl-pyran-2-one] |  |  |  |  |  |  | 127 | 11.5 | 33.8 | 66 | 86.6 | 98.5 | 104 |  |  |  |  |  |  |
| CCC(CC1=CCCOC1)c1cc(O)c(C(c2ccccc2)C2CC2)c(=O)o1 (centres unmarked) [Example 76, 3-(Cyclopropyl-phenyl-methyl)-6-[1-(5,6-dihydro-2H-pyran-3-ylmethyl)-propyl]-4-hydroxy-pyran-2-one] |  |  |  |  |  |  |  | 25 | 54 | 82.4 | 98.9 | 102 | 105 |  |  |  |  |  |  |
| CCC(c1ccccc1)c1c(O)c(Br)c(C(CC2CC2)CC2CC2)oc1=O (centres unmarked) [Example 77] | 69.4 | 86.9 | 101 | 109 | 108 | 110 | 75 |  |  |  |  |  |  |  |  |  |  |  |  |
| CCCc1oc(=O)c(C(c2ccccc2)C2CC2)c(O)c1CCOCCOC (centres unmarked) [Example 78, 3-(Cyclopropyl-phenyl-methyl)-4-hydroxy-5-[2-(2-methoxy-ethoxy)-ethyl]-6-propyl-pyran-2-one] | 50.5 | 68.9 | 93.2 | 101 | 107 | 106 | 196 |  |  |  |  |  |  |  |  |  |  |  |  |
